According to patent US8541442B2, “Indole derivatives as anticancer agents” (Janssen Pharmaceutica N.V., priority 2009, dated 2013):

What follows are molecules tested on p53 in A2780 cells (assay: p53 ELISA (preservation of p53 in A2780 cells)). Conditions: 16 hours treatment.
Type: cell-based, human
Experimental: The capacity of the present compounds to preserve p53 in A2780 cells was measured with the p53 enzyme linked immunosorbent assay. The p53 assay is a “sandwich” enzyme immunoassay employing two polyclonal antibodies. A polyclonal antibody, specific for the p53 protein, has been immobilized onto the surface of the plastic wells. Any p53 present in the sample to be assayed will bind to the capture antibody. The biotinylated detector polyclonal antibody also recognizes p53 protein, and will bind to any p53, which has been retained by the capture antibody. The detector antibody, in turn, is bond by horseradish peroxidase-conjugated streptavidin. The horseradish peroxidase catalyses the conversion of the chromogenic substrate o-phenylene diamine, the intensity of which is proportional to the amount of p53 protein bond to the plate. The colored reaction product is quantified using a spectrophotometer. Quantitation is achieved by the construction of a standard curve using known concentrations of purified recombinant HIS tagged p53 protein (see example C.1.).
A2780 cells (ATCC) were cultivated in RPMI 1640 supplemented with 10% fetal calf serum (FCS), 2 mM L-glutamine and gentamycin at 37° C. in a humidified incubator with 5% CO2.
A2780 cells were seeded at 20.000 cells per well in a 96 well plate, cultured for 24 hours and treated with compound for 16 hours at 37° C. in a humidified incubator. After incubation, the cells were washed once with phosphate-buffered saline and 30 μl, per well, low salt RIPA buffer (20 mM tris, pH7.0, 0.5 mM EDTA, 1% Nonidet P40, 0.5% DOC, 0.05% SDS, 1 mM PMSF, 1 μg/ml aprotinin and 0.5 μ/ml leupeptin) was added. Plates were placed on ice for 30 minutes to complete the lysis. p53 protein was detected in de lysates by using the sandwich ELISA, described below.
High binding polystyrene EIA/RIA 96 well plates (Costar 9018) were coated with the capture antibody pAb1801 (Abcam ab28-100) at a concentration of 1 μg/ml in coating buffer (0.1 M NaHCO3 pH8.2), 50 μl per well. The antibody was allowed to adhere overnight at 4° C. Coated plates were washed once with phosphate-buffered saline (PBS)/0.05% Tween 20 and 300 μl of blocking buffer (PBS, 1% bovine serum albumins (BSA)) was added, for an incubation period of 2 hours at room temperature. Dilutions of purified recombinant HIS tagged p53 protein, ranging from 3-200 ng/ml, were made in blocking buffer and used as standards.
Plates were washed twice with PBS/0.05% Tween 20 and blocking buffer or standards were added at 80 μl/well. To the standards, 20 μl of lysis buffer was added. The samples were added to the other wells at 20 μl lysate/well. After an overnight incubation at 4° C., plates were washed twice with PBS/0.05% Tween 20. Aliquots of 100 μl secondary polyclonal antibody p53(FL-393) (Tebubio, sc-6243) at a concentration of 1 μg/ml in blocking buffer were added to each well and allowed to adhere for 2 hours at room temperature. Plates were washed three times with PBS/0.05% Tween 20. Detection antibody anti-rabbit HRP (sc-2004, Tebubio) at 0.04 μg/ml in PBS/1% BSA was added and incubated for 1 hour at room temperature. Plates were washed three times with PBS/0.05% Tween 20 and 100 μl of substrate buffer was added (substrate buffer was prepared shortly before use by adding 1 tablet of 10 mg o-phenylene diamine (OPD) from Sigma and 125 μl 3% H2O2 to 25 ml OPD buffer: 35 mM citric acid, 66 mM Na2HPO4, pH5.6). After 5 to 10 minutes, colour reaction was stopped by adding 50 μl stop buffer (1 M H2SO4) per well. The absorbance at dual wavelengths of 490/655 nm was measured using a Biorad micro plate reader and the results were then analyzed.
For each experiment, controls (containing no drug) and a blank incubation (containing no cells or drugs) were run in parallel. The blank value was subtracted from all control and sample values. For each sample, the value of p53 (in absorbance units) was expressed as the percentage of the value for p53 present in the control. […]

Structure (SMILES) | p53-elisa LAD (lowest dose giving at least 140% of the value for p53 present in the control)
COC1CCc2c(Nc3ccc(NCCc4c[nH]c5c(C(C)(C)O)cccc45)cc3)ccnc21 (single isomer, unassigned) [Compound 25] | 0.10 µM
Cc1cc(Nc2ccnc(CO)c2)ccc1NCCc1c[nH]c2c(C(C)(C)O)cccc12 [Compound 19] | 0.10 µM
COc1cc(Nc2ccnc3c2CCC3O)ccc1NCCc1c[nH]c2c(C(C)(C)O)cccc12 (stereo not shown) [Compound 11] | 0.30 µM
CC(C)(O)c1cccc2c(CCNc3ccc(Nc4ccnc5c4CCC5(C)O)cc3)c[nH]c12 (single isomer, unassigned) [Compound 31] | 0.10 µM
CC(C)(O)c1cccc2c(CCNc3ccc(Nc4ccnc5c4CCC5(C)O)cc3)c[nH]c12 (single isomer, unassigned) [Compound 30] | 0.10 µM
COC1CCc2c(Nc3ccc(NCCc4c[nH]c5c(C(C)(C)O)cccc45)c(C)c3)ccnc21 (single isomer, unassigned) [Compound 29] | 0.03 µM
Cc1cc(Nc2ccnc3c2CCC3(C)O)ccc1NCCc1c[nH]c2c(C(C)O)cccc12 (stereo not shown) [Compound 10] | 1.0 µM
Cc1cc(Nc2ccncc2)ccc1NCCc1c[nH]c2c(C(O)C(C)C)cccc12 (stereo not shown) [Compound 22] | 3.00 µM
Cc1cc(Nc2ccnc3c2CCC3(C)O)ccc1NCCc1c[nH]c2c(C(C)(C)O)cccc12 (single isomer, unassigned) [Compound 26] | 0.10 µM
COC1CCc2c(Nc3ccc(NCCc4c[nH]c5c(C(C)O)cccc45)c(C)c3)ccnc21 (stereo not shown) [Compound 16] | 0.30 µM
COC1CCc2c(Nc3ccc(NCCc4c[nH]c5c(C(C)(C)O)cccc45)cc3)ccnc21 (single isomer, unassigned) [Compound 24] | 0.03 µM
Cc1cc(Nc2ccnc3c2CCC3O)ccc1NCCc1c[nH]c2c(C(C)(C)O)cccc12 (stereo not shown) [Compound 18] | 0.03 µM
Cc1cc(Nc2ccnc3c2CCC3O)ccc1NCCc1c[nH]c2c(C(C)O)cccc12 (single isomer, unassigned) [Compound 12] | 0.10 µM
Cc1cc(Nc2ccnc3c2CCC3O)ccc1NCCc1c[nH]c2c(C(C)O)cccc12 (single isomer, unassigned) [Compound 15] | 0.10 µM
Cc1cc(Nc2ccnc3c2CCC3O)ccc1NCCc1c[nH]c2c(CCO)cccc12 (single isomer, unassigned) [Compound 23] | 3.00 µM
COC1CCc2c(Nc3ccc(NCCc4c[nH]c5c(C(C)(C)O)cccc45)c(C)c3)ccnc21 (single isomer, unassigned) [Compound 28] | 0.10 µM

Same assay, conditions: Homo sapiens, A2780, 16 h, 16 hours treatment, read-out: p53-elisa LAD (lowest dose giving at least 140% of the value for p53 present in the control)

Structure (SMILES) | minimal effective concentration
Cc1cc(Nc2ccnc3c2CCC3O)ccc1NCCc1c[nH]c2c(CCC(C)O)cccc12 (stereo not shown) [Compound 9] | 1 µM
Cc1cc(Nc2ccnc3c2CCC3(C)O)ccc1NCCc1c[nH]c2c(C(C)(C)O)cccc12 (single isomer, unassigned) [Compound 27] | 0.1 µM
Cc1cc(Nc2ccnc3c2CCC3=O)ccc1NCCc1c[nH]c2c(C(C)O)cccc12 (stereo not shown) [Compound 4] | 0.1 µM
Cc1cc(Nc2ccnc(CO)c2)ccc1NCCc1c[nH]c2c(C(C)O)cccc12 (stereo not shown) [Compound 5] | 0.1 µM
OCc1cccc2c(CCNc3ccc(Nc4ccnc5c4CCC5O)cc3)c[nH]c12 (stereo not shown) [Compound 6] | 1 µM
C=C(C)c1cccc2c(CCNc3ccc(Nc4ccnc5c4CCC5OC)cc3)c[nH]c12 (stereo not shown) [Compound 7] | 0.3 µM
Cc1cc(Nc2ccnc3c2CCC3O)ccc1NCCc1c[nH]c2c(C(C)(C)O)cccc12 (stereo not shown) [Compound 20] | 0.03 µM
Cc1cc(Nc2ccnc3c2CCC3(C)O)ccc1NCCc1c[nH]c2c(C(C)(C)O)cccc12 (stereo not shown) [Compound 1] | 0.1 µM
Cc1cc(Nc2ccncc2)ccc1NCCc1c[nH]c2c(C(C)(C)O)cccc12 [Compound 2] | 0.1 µM

These molecules were tested on non-small cell lung cancer cell line H1299 (assay: Alamar Blue cell proliferation assay, H1299). Conditions: H1299 cells.
Type: cell-based
Experimental: For experiments in 384 wells plates the cells were seeded at a density of 5×10^3 cells/ml in Falcon 384-well culture plates (Life Technologies, Merelbeke, Belgium), black with clear bottom, in 45 μl culture medium. Cells were allowed to adhere to plastic for 24 hr. The tested compound was pre-diluted (1/50 in culture medium) and 5 μl pre-diluted compound was added to the wells. Following 4-day incubation, 10 μl of the Alamar Blue solution was added to each well and the cells were further incubated for 5 hrs (A2780) at 37° C. The fluorescence intensity was measured for each well with a Fluorescence plate reader (Fluorskan, Labsystems, 540 nm excitation and 590 nm emission)
The antiproliferative activity was calculated as percentage of remaining viable cells in treated versus control (untreated cells) conditions. Within an experiment, the result for each experimental condition is the mean of 3 replicate wells. When appropriate, the experiments were repeated to establish full concentration-response curves. When appropriate, IC50-values (concentration of the drug, needed to reduce cell growth to 50% of the control) were computed using probit analysis for graded data (Finney, D. J., Probit Analyses, 2nd Ed. Chapter 10, Graded Responses, Cambridge University Press, Cambridge 1962). Herein the effects of test compounds are expressed as pIC50 (the negative log value of the IC50-value (M)) (see Table 5A).
Compounds were also tested according to the above protocol but using other cell lines: colorectal cancer cell line HCT116, non-small cell lung cancer cell line H1299, human prostate cancer cell line DU145.

H1299 cell proliferation inhibition pIC50 | Structure (SMILES)
5.46 | Cc1cc(Nc2ccnc(CO)c2)ccc1NCCc1c[nH]c2c(C(C)(C)O)cccc12 [Compound 19]
5.81 | COc1cc(Nc2ccnc3c2CCC3O)ccc1NCCc1c[nH]c2c(C(C)(C)O)cccc12 (stereo not shown) [Compound 11]
5.68 | Cc1cc(Nc2ccnc3c2CCC3(C)O)ccc1NCCc1c[nH]c2c(C(C)O)cccc12 (stereo not shown) [Compound 10]
5.09 | Cc1cc(Nc2ccncc2)ccc1NCCc1c[nH]c2c(C(O)C(C)C)cccc12 (stereo not shown) [Compound 22]
6.73 | COC1CCc2c(Nc3ccc(NCCc4c[nH]c5c(C(C)O)cccc45)c(C)c3)ccnc21 (stereo not shown) [Compound 16]
5.2 | Cc1cc(Nc2ccnc3c2CCC3O)ccc1NCCc1c[nH]c2c(C(C)O)cccc12 (single isomer, unassigned) [Compound 12]
5.82 | Cc1cc(Nc2ccnc3c2CCC3O)ccc1NCCc1c[nH]c2c(C(C)O)cccc12 (single isomer, unassigned) [Compound 15]
5.61 | Cc1cc(Nc2ccnc3c2CCC3O)ccc1NCCc1c[nH]c2c(CCO)cccc12 (single isomer, unassigned) [Compound 23]

Structure (SMILES) | H1299 cell proliferation inhibition pIC50
CC(C)(O)c1cccc2c(CCNc3ccc(Nc4ccnc5c4CCC5(C)O)cc3)c[nH]c12 (single isomer, unassigned) [Compound 31] | 5.84
CC(C)(O)c1cccc2c(CCNc3ccc(Nc4ccnc5c4CCC5(C)O)cc3)c[nH]c12 (single isomer, unassigned) [Compound 30] | 6.02
COC1CCc2c(Nc3ccc(NCCc4c[nH]c5c(C(C)(C)O)cccc45)c(C)c3)ccnc21 (single isomer, unassigned) [Compound 29] | 6.67
Cc1cc(Nc2ccnc3c2CCC3(C)O)ccc1NCCc1c[nH]c2c(C(C)(C)O)cccc12 (single isomer, unassigned) [Compound 26] | 6.27
Cc1cc(Nc2ccnc3c2CCC3O)ccc1NCCc1c[nH]c2c(C(C)(C)O)cccc12 (stereo not shown) [Compound 18] | 6.38
Cc1cc(Nc2ccnc3c2CCC3O)ccc1NCCc1c[nH]c2c(C(C)(C)O)cccc12 (stereo not shown) [Compound 20] | 5.72
COC1CCc2c(Nc3ccc(NCCc4c[nH]c5c(C(C)(C)O)cccc45)c(C)c3)ccnc21 (single isomer, unassigned) [Compound 28] | 6.73

Same assay, conditions: Homo sapiens, NCI-H1299, H1299 cells; read-out: H1299 cell proliferation inhibition pIC50 (converted)

Structure (SMILES) | IC50
Cc1cc(Nc2ccnc3c2CCC3O)ccc1NCCc1c[nH]c2c(CCC(C)O)cccc12 (stereo not shown) [Compound 9] | 6760 nM
Cc1cc(Nc2ccnc3c2CCC3(C)O)ccc1NCCc1c[nH]c2c(C(C)(C)O)cccc12 (single isomer, unassigned) [Compound 27] | 1020 nM
Cc1cc(Nc2ccnc3c2CCC3=O)ccc1NCCc1c[nH]c2c(C(C)O)cccc12 (stereo not shown) [Compound 4] | 3720 nM
Cc1cc(Nc2ccnc(CO)c2)ccc1NCCc1c[nH]c2c(C(C)O)cccc12 (stereo not shown) [Compound 5] | 5890 nM
COC1CCc2c(Nc3ccc(NCCc4c[nH]c5c(C(C)(C)O)cccc45)cc3)ccnc21 (single isomer, unassigned) [Compound 24] | 234 nM
OCc1cccc2c(CCNc3ccc(Nc4ccnc5c4CCC5O)cc3)c[nH]c12 (stereo not shown) [Compound 6] | 9330 nM
C=C(C)c1cccc2c(CCNc3ccc(Nc4ccnc5c4CCC5OC)cc3)c[nH]c12 (stereo not shown) [Compound 7] | 407 nM
Cc1cc(Nc2ccnc3c2CCC3(C)O)ccc1NCCc1c[nH]c2c(C(C)(C)O)cccc12 (stereo not shown) [Compound 1] | 871 nM
Cc1cc(Nc2ccncc2)ccc1NCCc1c[nH]c2c(C(C)(C)O)cccc12 [Compound 2] | 1150 nM
